Key:
[1] = in vivo and in vitro, topical administration; cited from earlier work
[2] = transport of water-soluble material by association with nonionic vesicles

Molecule | effect of phospholipid liposomes on penetration into the skin [1] | transport by association with nonionic vesicles [2]
CC(=O)[C@H]1CC[C@H]2[C@@H]3CCC4=CC(=O)CC[C@]4(C)[C@H]3CC[C@]12C [progesterone] | do not improve penetration | 
C[C@]12CCC(=O)C=C1CC[C@@H]1[C@@H]2[C@@H](O)C[C@@]2(C)[C@H]1CC[C@]2(O)C(=O)CO [hydrocortisone] | do not improve penetration | 
C[C@]12CC[C@@H]3c4ccc(O)cc4CC[C@H]3[C@@H]1CC[C@@H]2O [estradiol] | do not improve penetration | 
TGF-α: water-soluble material tested for transport by association with nonionic vesicles |  | transported to a greater extent
carboxyfluoroscein |  | transported to a greater extent
